In patent US20040029276A1, “Fish attractants” (priority 2000, published 2004):

Key:
[1] = test system: olfactory system of the male fish; conditions: olfactory detection of the sex pheromone, Sorenson et al. 1987; cited from earlier work
male and female carp = assay: Electrophysiological and behavioural studies in an experimental behaviour chamber; assay type: in vivo
Excerpt: A particular composition which includes either a pure or crude synthetic form of 17,20β-dihydroxy-4-pregnen-3-one with an ethanol carrier has been tested by the inventors in laboratory experiments.

carp = assay: Behavioural response of carp in a Perspex flow-through experimental flume; assay type: in vivo
Procedure: The behaviour of carp in response to 17,20β-dihydroxy-4-pregnen-3-one was studied in a Perspex flow-through experimental flume. Fish were placed in the flume individually and allowed to acclimatise for a minimum of 1 hour before each experiment. The first set of experiments determined the behavioural response of male (n=5) and female (n=5) carp to serial dilutions of pure and synthetic form of 17,20β-dihydroxy-4-pregnen-3-one. Dilutions ranged from one part in 10^5 to one part in 10^11. The second set of experiments tested the behavioural response of male and female carp (n=6) to the same serial dilutions of synthetic 17,20β-dihydroxy-4-pregnen-3-one as used in Experiment 1, but with the addition of 5 dyed-gelatine pellets on the bottom of the flume. […] This feeding behaviour was characterised by the following: […]

Compound: C[C@@H](O)[C@@]1(O)CC[C@H]2[C@@H]3CCC4=CC(=O)CC[C@]4(C)[C@H]3CC[C@@]21C [17,20β-dihydroxy-4-pregnen-3-one]
- threshold concentration for the male fish [1]: about 10^−13 M
- feeding behaviour on detection of the hormone (male and female carp; experimental behaviour chamber): results in feeding behaviour
- detection of the hormone by the fish (male and female carp; pure or crude synthetic form with an ethanol carrier): detected by both male and female carp
- feeding behaviour in carp (carp; added to the behaviour chamber at concentrations ranging from 10^−5 to one part in 10^−10): resulted in feeding behaviour in carp
- attraction of fish (carp; sexually immature carp): attracted immature carp
- feeding behaviour in immature carp (carp; sexually immature carp): resulted in feeding behaviour in these individuals
